Assay results taken from article PMC12645083, “Microwave‐Enhanced Synthesis of 2‐Styrylquinoline‐4‐Carboxamides With Promising Anti‐Lymphoma Activity” (Archiv Der Pharmazie, 2025).

Columns and labels:
[1] = system: panel of five tumor cell lines (HD-MB03, RPMI-8402, SU-DHL-8, A549, MDA-MB-231); experiment: Antiproliferative activity, range over the panel of five tumor cell lines; type: cell-based; settings: Homo sapiens; range over the active cell lines of the five-line panel; 72 h
Procedure: The synthesized quinoline derivatives 4a–z and 4aa–ah were evaluated in vitro for their antiproliferative activity against a panel of five tumor cell lines (HD‐MB03, medulloblastoma; RPMI‐8402, T‐lymphoblastic leukemia; SU‐DHL‐8, B lymphocyte, large cell lymphoma; A549, non‐small cell lung cancer; MDA‐MB‐231, triple‐negative breast cancer) (Table 2). […] Replacing the 4‐Cl group with a trifluoromethyl group (4ac) reduced antiproliferative activity.
To test the newly synthesized compounds, various human cell lines were employed. HD‐MB03 cells were purchased from DSMZ (Braunschweig, Germany), while A549, MDA‐MB‐231, RPMI‐8420, SU‐DHL‐8, TOLEDO, VL51, SU‐DHL‐1, SU‐DHL‐18, and KM‐H2 were obtained from ATCC (Manassas, VA, USA). Cells were cultured in DMEM (for MDA‐MB‐231 and A549) or RPMI‐1640 (for RPMI‐8420, SU‐DHL‐8, TOLEDO, VL51, SU‐DHL‐1, SU‐DHL‐18, KM‐H2, and HD‐MB03) media (Gibco, Milan, Italy). Both media were supplemented with 115 units/mL penicillin G (Gibco, Milan, Italy), 115 µg/mL streptomycin (Invitrogen, Milan, Italy), and 10% fetal bovine serum (Invitrogen, Milan, Italy). Peripheral blood mononuclear cells (PBMCs) were isolated from healthy donors as previously described. For cytotoxicity assays, PBMCs were resuspended at 5 × 10⁵ cells/mL in complete RPMI medium with or without 2.5 µg/mL phytohemagglutinin (PHA) (Irvine Scientific) to stimulate T‐cell activation and proliferation. All cell lines were maintained at 37°C in a humidified atmosphere containing 5% CO₂. All compounds were dissolved in DMSO at a 10 mM stock concentration. For dose–response assays, cells were seeded in 96‐well plates at densities optimized for each cell line: HD‐MB03 at 10,000 cells/well, A549 at 4000 cells/well, and MDA‐MB‐231 at 7000 cells/well. All other cell lines were seeded at 20,000 cells/well in a final volume of 100 µL per well. After 24 h, cells were treated with a 6‐point serial dilution of compounds starting from 10 µM, in triplicate for statistical analysis. Seventy‐2 h posttreatment, 10 µL of resazurin solution (100 µg/mL) was added to each well, and cells were incubated for an additional 3–6 h. Fluorescence was measured using a Spark 10 M microplate reader (Tecan Group Ltd., Männedorf, Switzerland) with excitation at 535 nm and emission at 600 nm. The IC₅₀ was defined as the concentration of compound required to inhibit cell proliferation by 50% compared to cells treated with the highest DMSO concentration.

[2] = system: TOLEDO; experiment: EdU incorporation assay (DNA synthesis); type: cell-based, human; settings: 1 and 2 µM, 48 h
Procedure: (§1) For evaluation of DNA synthesis, cells were plated in 12‐well plates at 0.2 × 10⁶ cells/mL in 1 mL of complete medium. After 24 h, cells were treated with the indicated compound concentrations. EdU (5‐ethynyl‐2‐deoxyuridine) incorporation was performed according to the Baseclick EdU Flow Cytometry Kit instructions (Sigma Aldrich, St. Louis, MO, USA) as previously described. EdU‐FITC incorporation was detected using a CytoFLEX flow cytometer (Beckman Coulter, Brea, CA, USA) and analyzed with FlowJo software v.10.7.1 (BD Biosciences).

[3] = system: VL51; experiment: EdU incorporation assay (DNA synthesis); type: cell-based, human; settings: 1 and 2 µM, 48 h
Procedure: as §1

[4] = system: TOLEDO; experiment: Mitochondrial ROS detection (MitoSOX); type: cell-based, human; settings: 24 h of treatment
Procedure: (§2) Cells were plated in 12‐well plates at 0.2 × 10⁶ cells/mL in 1 mL of complete medium. After 24 h, cells were treated with the indicated compound concentrations. Following a 24‐h treatment, cells were stained with 0.5 µM MitoSOX (Invitrogen, US) for 20 min. After washing with PBS, fluorescence was measured using a CytoFLEX flow cytometer (Beckman Coulter) and analyzed with FlowJo software v.10.7.1.

[5] = system: VL51; experiment: Mitochondrial ROS detection (MitoSOX); type: cell-based, human; settings: 24 h of treatment
Procedure: as §2

| IC50 [1] | Structure (SMILES) | DNA synthesis (EdU incorporation) [2] | DNA synthesis (EdU incorporation) [3] | Mitochondrial ROS (MitoSOX-positive cells) [4] | Mitochondrial ROS (MitoSOX-positive cells) [5] |
| --- | --- | --- | --- | --- | --- |
| 1.33 to 6.92 µM | O=C(Nc1ccc(Cl)cc1)c1cc(/C=C/c2ccccc2[N+](=O)[O-])nc2ccccc12 [4ah, (E)-N-(4-chlorophenyl)-2-(2-nitrostyryl)quinoline-4-carboxamide] | – | – | – | – |
| – | O=C(Nc1ccc([N+](=O)[O-])cc1)c1cc(/C=C/c2ccccc2)nc2ccccc12 [4i, (E)-N-(4-nitrophenyl)-2-styrylquinoline-4-carboxamide] | marked, dose‐dependent reduction in DNA synthesis | marked, dose‐dependent reduction in DNA synthesis | marked dose‐dependent increase of mitochondrial ROS | marked dose‐dependent increase of mitochondrial ROS |
